PMC12557438, “Thiadiazino-indole, thiadiazino-carbazole and benzothiadiazino-carbazole dioxides: synthesis, physicochemical and early ADME characterization of representatives of new tri-, tetra- and pentacyclic ring systems and their intermediates” (Beilstein Journal of Organic Chemistry, 2025)
In brackets after ≈: the same amount, converted by molar mass. Like-named read-outs stand apart in the source and are kept apart here.

Legend:
[1] = Metabolic stability assay in human liver microsome fractions; type: in vitro ADME; conditions: NADPH, 37 °C; for CLint scaled at 10 µM / half-life at 10 µM: pH 7.4, pooled human liver microsomes; for CLint scaled at 10 µM: read-out: HLM Clint (converted); for half-life at 10 µM: read-out: HLM t1/2
Method: Metabolic stability assay in human liver microsome fractions. The metabolic stability of the test compounds was assessed in vitro using pooled liver microsome fractions derived from humans (Xenotech LLC). The assay was conducted in a 96-well plate format according to a standardized protocol, utilizing cofactor-supplemented incubation systems, mainly to mimic phase I oxidative metabolic pathways. Human liver microsome (HLM) fractions were thawed on ice and diluted in 0.05 M potassium phosphate buffer (pH 7.4) to a final protein concentration of 1.25 mg/mL. Test compounds were dissolved in DMSO to create stock solutions of 5 mM. The drug concentration in the final assays was 10 μM. The assay was performed in triplicate. Reaction mixtures containing the diluted HLM fractions and test compounds were pre-incubated for 5 minutes at 37 °C while shaking at 450 rpm. The reaction was initiated by adding the 0.05 M NADPH cofactor mixture to the wells (100 µL per well) for the “with cofactors” conditions or by adding phosphate buffer for the “without cofactors” control. Aliquots (100 µL) were taken at zero time and at pre-defined time points of 30 and 60 minutes and quenched with an equal volume of cold acetonitrile. The samples were centrifuged at 2600 RCF for 10 minutes to pellet proteins. Supernatants were transferred to LC vials and stored at −20 °C until LC–MS/MS analysis. The concentration of the parent compound remaining in each sample was determined using liquid chromatography coupled with tandem mass spectrometry (LC–MS/MS). The percentage of the remaining substrate was calculated relative to the time-zero sample. The natural logarithm of the percentage remaining was plotted against incubation time to determine the first-order elimination rate constant (k) using linear regression. The half-life (t₁/₂) was calculated using Equation 4: […]
Intrinsic clearance (Clint) was calculated and scaled to in vivo conditions using Equation 5:
[5] Clint=ln2/t1/2×liver weight (g)/standard body weight (kg)×incubation volume (mL)/HLM protein/well×HLM protein (mg)/gram of liver
where the HLM protein per gram of liver was equal to 25 and the liver weight per standard body was equal to 49. Testosterone was included as a positive control to confirm metabolic competence of the HLM fractions, with and without cofactors.
HPLC–MS analysis. The semi-quantitative determination of test compounds was carried out using a Waters Xevo G2-XS QToF mass spectrometer equipped with an electrospray ionization (ESI) source operating in positive ion mode. Chromatographic separation was performed on a Waters XBridgeTM Premier BEH C18 (3.5 μm, 4.6 × 150 mm) column maintained at 40 °C. The mobile phase consisted of water with 0.1% formic acid (A) and acetonitrile with 0.1% formic acid (B). The injection volume was 10 µL. The autosampler was maintained at 5 °C. The gradient elution program shown in Table 4 was applied at a constant flow rate of 1.0 mL/min.
The mass spectrometer operated in sensitivity mode with a capillary voltage of 3.0 kV, source temperature was 100 °C, and desolvation temperature was 350 °C. The cone gas flow was set to 0 L/h and desolvation gas flow to 800 L/h. LockSpray calibration was performed using leucine enkephalin as the reference compound (m/z 556.2771), introduced at 15 µL/min. Data acquisition was performed in MSE mode with alternating low collision energy (6 eV) and ramped high-energy collision dissociation (20–40 eV). The mass range was set from 50 to 1200 Da. Each function used a scan time of 0.5 s. Data were acquired in the continuum mode. Instrument mass accuracy calibration was verified using sodium formate. The system was controlled with a MassLynx v4.2 SCN996 software.

[2] = In vitro gastrointestinal permeability assay (GI PAMPA); type: in vitro ADME; conditions: for Papp at 4 h, 100 µM: PAMPA; for GI PAMPA membrane retention / GI PAMPA penetration: donor pH 6.5, acceptor pH 7.4, 1% DMSO, 37 °C, 4 hours, mean of 3 replicates; for GI PAMPA permeability in words / GI PAMPA membrane retention (MR) in words: wording of the text, outside the class key
Method: In vitro gastrointestinal permeability assay. […] The artificial membrane was fabricated by dissolving ʟ-α-phosphatidylcholine (16 mg) and cholesterol (4 mg) in a solvent mixture of chloroform, hexane and dodecane (5/70/25 vol %). Each well of the PAMPA donor plate (MAIPNTR, PVDF membrane, Merck KGaA, Darmstadt, Germany) was coated with 5 μL lipid solution. Thereafter the donor plate was fitted into the acceptor plate (MSSACCEPTOR, Merck KGaA, Darmstadt, Germany) already containing 300 μL PBS (pH 7.4) solutions with 1% DMSO. Finally, 150 μL of the initial solutions was pipetted into the donor plate, the plate sandwich was covered with a wet paper tissue and with a plate lid to avoid evaporation, and the system was incubated at 37 °C for 4 hours. Then samples were taken from the donor and acceptor wells and analyzed along with the initial solutions by HPLC.
[1] Pe=−2.303/A⋅(t−τss)⋅(1/1+ra)⋅lg[−ra+(1+ra/1−MR)⋅cD(t)/cD(0)]
[2] MR=1−cD(t)/cD(0)−VAcA(t)/VDcD(0)
where A is the filter area (0.24 cm^2), t is the incubation time (s), τss is the time to reach steady-state (s), ra is the sink asymmetry ratio approximated with a value of 10^−14, VD and VA are the volumes in the donor (0.15 mL) and the acceptor phase (0.3 mL), cD(t) is the concentration of the compound in the donor phase at time point t (mol/L), cD(0) is the concentration of the compound in the donor phase at time point zero (initial solutions, mol/L), cA(t) is the concentration of the compound in the acceptor phase at time point t (mol/L), cA(0) is the concentration of the compound in the acceptor phase at time point zero (mol/L).
(§1) Analytical methods. […] For a 7-minute long gradient program, eluents A (0.1% formic acid in water) and B (0.1% formic acid in acetonitrile) were used as follows: initial conditions with 30% B were kept for 1 minute, then 90% B was achieved within 3 minutes, kept for further 1 minute, finally the initial condition was adjusted and equilibrated for further 2 minutes. 5-Point calibration series were measured from each compound resulting in R^2 ≈ 0.9990–0.9999.

[3] = Determination of the capacity factor (logk) by RP-HPLC; type: physicochemical; conditions: reversed-phase chromatographic capacity factor, eluent pH 7.0
Method: Determination of the capacity factor. […] The same analytical method was used with modified eluents: eluent A was 20 mM triethylamine with phosphoric acid (pH 7.0), and eluent B was acetonitrile without additives. The method time was slightly extended, with a 1-minute longer gradient, resulting in an 8-minute program. The capacity factor was calculated with Equation 3: […]
where k is the capacity factor, tR is the retention time (min) of the compounds and t0 is the dead-time of the column (min).

[4] = Kinetic aqueous solubility assay; type: physicochemical; design: key to Kinetic solubility (no value): –: Compounds with no value were under the detection limit; conditions: for solubility kinetic at 2 h: PBS buffer, pH 6.5, aqueous buffer, kinetic from dmso stock; for Kinetic solubility in words: wording of the text, outside the class key; for Kinetic solubility (no value): PBS pH 6.5, 2 hours, dash = under the detection limit
Method: Kinetic aqueous solubility assay. All compounds were dissolved in DMSO to make stock solutions at 10 mM concentration. […] 5 μL of the stock solutions was pipetted into a 96-well plate containing 495 μL PBS (pH 6.5) in each well to achieve 100 μM target concentration (1% DMSO). […] The plate was then sealed and shaken for 2 hours at room temperature. Each compound was investigated in 3 replicates. After 2 hours, the samples were filtered on a MultriscreenHTS filter plate (MSSLBPC, polycarbonate membrane, Merck KGaA, Darmstadt, Germany) by a Millipore Vacuum Manifold (Merck KGaA, Darmstadt, Germany). Before analyzing, 20 vol % acetonitrile was added to each well to avoid sample precipitation during HPLC analysis.
as §1

[5] = scaled to in vivo conditions (Equation 5)
[6] = class in words, read-out: GI PAMPA permeability (Pe) category
[7] = colour key of Figure 5, read-out: Permeability category (Pe), colouring of Figure 5
[8] = PBS pH 6.5, 100 µM target concentration (1% DMSO), 2 hours, room temperature, mean of 3 replicates, read-out: Kinetic solubility
[9] = class in words, read-out: Kinetic solubility category
[10] = PBS pH 6.5, 100 µM target concentration (1% DMSO), 2 hours, room temperature, mean of 3 replicates

SMILES	GI PAMPA membrane retention [2]	GI PAMPA penetration [2]	logk (−) pH 7.0 [3]	solubility kinetic at 2 h [4, 8]	other results
CC1=NN(C)S(=O)(=O)c2c1ccc1c(C)c[nH]c21 [Compound 3c]	39.8 ± 0.2%	30.3 ± 4.2 10^−6 cm/s	0.567	41.4 ± 0.9 µM (≈ 10.9 µg/mL)	CLint scaled at 10 µM [1, 5]: 1.42 mL/h/kg; half-life at 10 µM ([1]; triplicate): 29 ± 2 min; Papp at 4 h, 100 µM [2, 6]: > 10 ×10⁻⁶ cm/s; Papp at 4 h, 100 µM [2, 7]: > 10 ×10⁻⁶ cm/s; GI PAMPA membrane retention (MR) category ([2]; class in words): moderate (moderate under 80%); solubility kinetic at 2 h [4, 9]: > 30 µM; Kinetic solubility in words [4]: moderate to good
CCc1[nH]c2c3c(ccc2c1C)C(C)=NN(C)S3(=O)=O [Compound 3b]	98.5 ± 0.1%	0.0 10^−6 cm/s	0.603	31 ± 2.2 µM (≈ 9.03 µg/mL)	GI PAMPA membrane retention (MR) category ([2]; class in words): extremely high (extremely high above 90%); GI PAMPA permeability in words [2]: nearly zero; solubility kinetic at 2 h [4, 9]: > 30 µM
CCC=NNc1cccc2c1S(=O)(=O)N(C)N=C2c1ccccc1 [crude 7h]			0.645	0.7 ± 0.02 µM (≈ 0.24 µg/mL)	
CN1N=C(c2ccccc2)c2ccc3c4c([nH]c3c2S1(=O)=O)CCCC4 [Compound 3j]			0.660		Kinetic solubility (no value) ([4]; room temperature): –
CN1N=C(c2ccccc2)c2ccc3c([nH]c4c5ccccc5ccc34)c2S1(=O)=O [Compound 10b]			0.685		Kinetic solubility (no value) ([4]; room temperature): –
Cc1[nH]c2c3c(ccc2c1C)C(c1ccccc1)=NN(C)S3(=O)=O [Compound 3f]			0.629	5 ± 0.3 µM (≈ 1.7 µg/mL)	
CCC(CC)=NNc1cccc2c1S(=O)(=O)N(C)N=C2c1ccccc1 [Compound 7g]			0.677		Kinetic solubility (no value) ([4]; room temperature): –
Cc1c[nH]c2c3c(ccc12)C(c1ccccc1)=NN(C)S3(=O)=O [Compound 3h, 2,7-Dimethyl-4-phenyl-2,9-dihydro[1,2,3]thiadiazino[5,6-g]indole 1,1-dioxide]			0.614	8.6 ± 0.3 µM (≈ 2.8 µg/mL)	
CCC(CC)=NNc1cccc2c1S(=O)(=O)N(C)N=C2C [Compound 7b]			0.625		Kinetic solubility [4, 10]: 6.2 ± 0.3 µM
CC1=NN(C)S(=O)(=O)c2c(NN=C3CCCCC3)cccc21 [Compound 7e, 8-(2-Cyclohexylidenehydrazino)-2,4-dimethyl-2H-1,2,3-benzothiadiazine 1,1-dioxide]	97.5 ± 0.3%	0.0 10^−6 cm/s	0.626	86.3 ± 3.9 µM (≈ 27.7 µg/mL)	GI PAMPA membrane retention (MR) category ([2]; class in words): extremely high (extremely high above 90%); GI PAMPA permeability in words [2]: nearly zero; solubility kinetic at 2 h [4, 9]: > 30 µM
CC1=NN(C)S(=O)(=O)c2c1ccc1c(C)c(C)[nH]c21 [Compound 3a]			0.580	1.5 ± 0.09 µM (≈ 0.416 µg/mL)	
CC1=NN(C)S(=O)(=O)c2c1ccc1c2[nH]c2c3ccccc3ccc12 [Compound 10a]			0.637		Kinetic solubility (no value) ([4]; room temperature): –
CC1=NN(C)S(=O)(=O)c2c1ccc1c3c([nH]c21)CCCC3 [Compound 3e, 2,4-Dimethyl-2,7,8,9,10,11-hexahydro[1,2,3]thiadiazino[6,5-a]carbazole 1,1-dioxide]	82.3 ± 0.8%	7.1 ± 1.7 10^−6 cm/s	0.516	51.4 ± 1.3 µM (≈ 15.6 µg/mL)	half-life at 10 µM ([1]; triplicate): 100 ± 23 min; Papp at 4 h, 100 µM [2, 6]: < 10 ×10⁻⁶ cm/s; Papp at 4 h, 100 µM [2, 7]: < 10 ×10⁻⁶ cm/s; GI PAMPA membrane retention (MR) in words [2]: high; solubility kinetic at 2 h [4, 9]: > 30 µM
CC/C(C)=N/Nc1cccc2c1S(=O)(=O)N(C)N=C2C [(E)-7a]	61.0 ± 5.1%	33.6 ± 3.0 10^−6 cm/s	0.547		HLM Clint ([1]; pooled human liver microsomes, 10 μM, scaled to in vivo conditions (Equation 5)): 1.2 ± 0.042 mL/h/kg; HLM t1/2 ([1]; pooled human liver microsomes, 10 μM, triplicate): 34 ± 1 min; GI PAMPA membrane retention (MR) category ([2]; class in words): moderate (moderate under 80%); GI PAMPA permeability (Pe) category ([2]; class in words): good (good above 10 × 10^−6 cm/s); Kinetic solubility [4, 10]: 20.5 ± 0.8 µM; Kinetic solubility in words [4]: moderate to good
CC1=NN(C)S(=O)(=O)c2c(NN=C3CCCC3)cccc21 [Compound 7d]	93.3 ± 0.2%	7.6 ± 2.9 10^−6 cm/s	0.599	46.9 ± 2.8 µM (≈ 14.4 µg/mL)	CLint scaled at 10 µM [1, 5]: 1.34 mL/h/kg; half-life at 10 µM ([1]; triplicate): 31 ± 3 min; Papp at 4 h, 100 µM [2, 6]: < 10 ×10⁻⁶ cm/s; Papp at 4 h, 100 µM [2, 7]: < 10 ×10⁻⁶ cm/s; GI PAMPA membrane retention (MR) in words [2]: high; solubility kinetic at 2 h [4, 9]: > 30 µM
CC1=NN(C)S(=O)(=O)c2c1ccc1c3c([nH]c21)CCC3 [Compound 3d]			0.591	3.2 ± 0.2 µM (≈ 0.926 µg/mL)	
CN1N=C(c2ccccc2)c2ccc3c4c([nH]c3c2S1(=O)=O)CCC4 [Compound 3i]			0.645		Kinetic solubility [4, 10]: 1.7 ± 0.3 µM
